Tested on: PMA stimulated PGE2 Levels in Human Skin Fibroblasts
Conditions: primary human foreskin fibroblasts, pinolenic acid even at levels of 10 ng/ml, 24 h pre-incubation
Protocol: A reduction of the levels of ICAM and PGE2 is indicative for the anti-inflammatory effect. Primary human foreskin fibroblasts at passage 2 (P2) were seeded into 96-well plates at 10000 cells/well and maintained for 24 hours in an atmosphere of 5% carbon dioxide in Dulbeccos Modified Eagles Medium (DMEM) supplemented with 10% foetal calf serum. […] PMA represents an external stressor which induces oxidative stress and inflammatory responses in cells. The fibroblasts/media were then analysed as described below immediately or snap frozen in liquid nitrogen and stored at −70° C. for future analysis. […] PGE2 levels in the medium were determined with a Biotrak PGE2 immunoassay kit (Amersham, UK). The assay is based on the competition between unlabelled PGE2 in the sample and a fixed quantity of horseradish peroxidase labelled PGE2 for a limited amount of fixed PGE2 specific antibody. Concentrations of unlabelled sample PGE2 are determined according to a standard curve which was obtained at the same time.

## CCCCC/C=C\C/C=C\CC/C=C\CCCC(=O)O [Pinolenic acid, 5,9,12 C18:3 fatty acid]
  inflammatory response as measured by PGE2 production: dramatically reduces the inflammatory response
